Measurements reported in US20250189514A1 (priority 2022, published 2025).
Read-outs that look alike come from different tables or passages of the source. Where no end group is shown, it is not given here.

Legend:
α6/3β2β3 nAChR [1] = format: cell-based, human
α6/3β2β3 nAChR [2] = tested on: α6/3β2β3 nAChR
Protocol: In one embodiment, FLIPR assay is used to identify agonists of 6β2β3 nAChR (including chimeric α6/3β2β3 nAChR as described above) mediated calcium flux. In this assay, the recombinant cells are incubated with a calcium sensitive dye (such as Ca5), exposed to a test compound, and calcium flux is imaged by FLIPR^TETRA.
• Spin down cells at 300×G for 5 min, aspirate supernatant, and resuspend in 10 ml plating medium. • Seed 25,000 cells/well in 50 μL (5×10^5cells/mL). • Incubate plates for 24 hours at 30° C. with 5% CO2 in a humidified atmosphere. Day 4 FLPR Assay • Wash plate with plate washer (4 washes x 100 μL/wash) using compound dilution buffer, leaving 25 μl in each well. • Add 25 μl of 2× Ca5 dye to each well. • Incubate at room temperature for 1 hr. • Wash plate with plate washer (4 washes x 100 μL/wash) using compound dilution buffer, leaving 25 μL in each well.
• Transfer plates to FLIPR for compound addition. Single addition plate of 2× agonist (25 μL). Control wells for agonists will be in column 23 and 24. […] Negative control wells received buffer+vehicle (25 μL). Functional Expression of α6β2β3 nAChR

Compound: CO[C@H]1CC=C2CCN3CCC4=C(CC(=O)OC4)[C@]23C1 [DHbE]
- IC100 DHBe (α6/3β2β3 nAChR [1]): 10 µM
- effect on nicotine-evoked calcium flux (FLIPR signal) (α6/3β2β3 nAChR [1]): decreases the nicotine-evoked calcium flux in a dose-dependent manner

Compound: CCN1C[C@]2(COC(=O)c3ccccc3N3C(=O)C[C@H](C)C3=O)CC[C@H](OC)[C@@]34[C@@H]5C[C@H]6[C@H](OC)[C@@H]5[C@](O)(C[C@@H]6OC)[C@](O)([C@@H](OC)[C@H]23)[C@@H]14 [MLA]
- effect on nicotine-evoked calcium flux (FLIPR signal) (α6/3β2β3 nAChR [1]): decreases the nicotine-evoked calcium flux in a dose-dependent manner

Compound: CNC1(C)C2CCC(C2)C1(C)C (stereo not shown) [mecamylamine]
- effect on nicotine-evoked calcium flux (FLIPR signal) (α6/3β2β3 nAChR [1]; transfected HEK293T cells incubated at 30° C. for 24-48 hour, antagonist at various concentration 3 min, then nicotine EC80 3.5 min, FIGS. 2A-2D): decreases the nicotine-evoked calcium flux in a dose-dependent manner

Compound: CN1CCCC1c1cccnc1 (stereo not shown) [nicotine]
- nicotine EC80 (α6/3β2β3 nAChR [2]; 2nd addition in concentration response curve experiment): 236 nm
- EC80 nicotine (α6/3β2β3 nAChR [2]; concentration used as agonist challenge in antagonist protocol): 236 nM

Compound: α-conotoxin MII (GCCSNPVCHLEHSNLC; ends and bridges not checked; cysteine pairing not given here; UniProt P56636 49-64, looked up)
- effect on nicotine-evoked calcium flux (FLIPR signal) (α6/3β2β3 nAChR [1]): decreases the nicotine-evoked calcium flux in a dose-dependent manner
